Test results as given in US7550469B2, “Heterocyclic amide derivatives and their use as dopamine D3 receptor ligands” (Aventis Pharmaceuticals Inc., priority 2001, dated 2009).
Where two headings read alike, the source gives them in different places.

Target: T1, cloned human dopamine D3 receptors (Homo sapiens, UniProt P35462)
T1 construct: expressed in transfected cells; membrane homogenate
Assay: [N-Methyl-3H]Spiroperidol binding to cloned human dopamine D3 receptors (Protocol 1)
How it was run: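 Membranes from CHO cells stably expressing cloned human D3 receptor were used for [N-methyl-3H]spiroperidol (60-90 Ci/mmol) binding. Assay buffer was 0.05 M Tris HCl pH 7.7 with 120 mM NaCl, 5 mM KCl, 2 mM CaCl2 and 1 mM MgCl2, optionally 0.1% ascorbic acid; total ligand concentration calculated from added CPM.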

[1] = the 13th table, unit inferred, read-out: D3Ki
[2] = the 14th table, read-out: D3 Ki

T1 sequence (P35462 whole entry): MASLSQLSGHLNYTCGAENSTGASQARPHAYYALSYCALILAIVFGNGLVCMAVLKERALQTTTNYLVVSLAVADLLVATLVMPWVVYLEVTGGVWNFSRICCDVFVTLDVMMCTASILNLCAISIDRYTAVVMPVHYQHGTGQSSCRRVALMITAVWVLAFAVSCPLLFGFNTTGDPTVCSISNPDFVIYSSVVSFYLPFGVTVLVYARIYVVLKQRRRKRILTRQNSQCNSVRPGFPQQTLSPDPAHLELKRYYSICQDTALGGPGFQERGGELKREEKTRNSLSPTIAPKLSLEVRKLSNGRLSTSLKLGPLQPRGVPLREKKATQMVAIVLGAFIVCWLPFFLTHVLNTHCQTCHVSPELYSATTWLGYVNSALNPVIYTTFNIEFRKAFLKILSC

Row | Structure (SMILES) | Ki (read-out: D3K1) [nM] | Ki [1] [nM] | Ki [2] [nM] | Ki (Table 2, read-out: D3K1) [nM]
1 | O=C(NCCCCN1CCN(c2c(Cl)sc3cc(F)ccc23)CC1)c1ccc([N+](=O)[O-])cc1 [compound 815061] | 3.6 |  |  | 
2 | COc1ccc(C(=O)NCCCCN2CCN(c3c(Cl)sc4cc(F)ccc34)CC2)cc1OC [compound 815062] | 4.1 |  |  | 
3 | O=C(NCCCCN1CCN(c2c(Cl)sc3cc(F)ccc23)CC1)c1ccc(Br)cc1 [compound 815063] | 6.3 |  |  | 
4 | O=C(NCCCCN1CCN(c2c(Cl)sc3cc(F)ccc23)CC1)c1cc2ccccc2s1 [compound 815064] | 1.9 |  |  | 
5 | O=C(NCCCCN1CCN(c2c(Cl)sc3cc(F)ccc23)CC1)c1ccccc1C(F)(F)F [compound 815065] | 43.8 |  |  | 
6 | COc1ccccc1C(=O)NCCCCN1CCN(c2c(Cl)sc3cc(F)ccc23)CC1 [compound 815066] | 28.7 |  |  | 
7 | O=C(NCCCCN1CCN(c2c(Cl)sc3cc(F)ccc23)CC1)c1ccc(C(F)(F)F)cc1 [compound 815067] | 20.1 |  |  | 
8 | O=C(NCCCCN1CCN(c2c(Cl)sc3cc(F)ccc23)CC1)c1ccco1 [compound 815068] | 4.9 |  |  | 
9 | O=C(NCCCCN1CCN(c2c(Cl)sc3cc(F)ccc23)CC1)c1c(F)cccc1F [compound 815069] | 15 |  |  | 
10 | O=C(NCCCCN1CCN(c2c(Cl)sc3cc(F)ccc23)CC1)c1ccccc1Br [compound 815070] | 34.4 |  |  | 
11 | O=C(NCCCCN1CCN(c2c(Cl)sc3cc(F)ccc23)CC1)C1CCCC1 [compound 815071] | 7.2 |  |  | 
12 | O=C(NCCCCN1CCC(c2noc3ccsc23)CC1)c1cc2ccccc2s1 [compound 815147] |  | 371 |  | 
13 | O=C(NCCCCN1CCC(c2noc3ccsc23)CC1)c1ccc(Cl)cc1 [compound 815151] |  | 136 |  | 
14 | CCOc1ccc(C(=O)NCCCCN2CCC(c3noc4ccsc34)CC2)cc1 [compound 815152] |  | 158 |  | 
15 | COc1cc(OC)cc(C(=O)NCCCCN2CCN(c3csc4cc(C(F)(F)F)ccc34)CC2)c1 [compound 815543] | 32 |  |  | 
16 | O=C(NCCCCN1CCN(c2csc3cc(C(F)(F)F)ccc23)CC1)c1ccc(-c2ccccc2)cc1 [compound 815547] | 4.4 |  |  | 
17 | O=C(NCCCCN1CCN(c2csc3cc(C(F)(F)F)ccc23)CC1)c1ccc([N+](=O)[O-])cc1 [compound 815549] | 2.1 |  |  | 
18 | COc1ccc(C(=O)NCCCCN2CCN(c3csc4cc(C(F)(F)F)ccc34)CC2)cc1OC [compound 815550] | 6.9 |  |  | 
19 | CCCCCOc1ccc(C(=O)NCCCCN2CCN(c3csc4cc(C(F)(F)F)ccc34)CC2)cc1 [compound 815552] | 140 |  |  | 
20 | O=C(NCCCCN1CCN(c2csc3cc(C(F)(F)F)ccc23)CC1)c1ccccc1C(F)(F)F [compound 815553] | 41 |  |  | 
21 | O=C(NCCCCN1CCN(c2csc3cc(C(F)(F)F)ccc23)CC1)c1ccccc1Br [compound 815558] | 23 |  |  | 

Row | Structure (SMILES) | Ki (read-out: D3K1) [nM] | Ki [1] [nM] | Ki [2] [nM] | Ki (Table 2, read-out: D3K1) [nM]
22 | O=C(NCCCCN1CCN(c2csc3cc(C(F)(F)F)ccc23)CC1)C1CCCC1 [compound 815559] | 13.5 |  |  | 
23 | CCOc1ccc(C(=O)NCCCCN2CCN(c3c(Cl)sc4cc(C(F)(F)F)ccc34)CC2)cc1 [compound 815560] | 22 |  |  | 
24 | O=C(NCCCCN1CCN(c2c(Cl)sc3cc(C(F)(F)F)ccc23)CC1)c1ccc(F)cc1F [compound 815561] | 41 |  |  | 
25 | O=C(NCCCCN1CCN(c2c(Cl)sc3cc(C(F)(F)F)ccc23)CC1)c1ccc2c(c1)OCO2 [compound 815563] | 21 |  |  | 
26 | CCCCOc1ccc(C(=O)NCCCCN2CCN(c3c(Cl)sc4cc(C(F)(F)F)ccc34)CC2)cc1 [compound 815564] | 159 |  |  | 
27 | O=C(NCCCCN1CCN(c2c(Cl)sc3cc(C(F)(F)F)ccc23)CC1)c1cccs1 [compound 815566] | 32 |  |  | 
28 | O=C(NCCCCN1CCN(c2c(Cl)sc3cc(C(F)(F)F)ccc23)CC1)c1ccc(Cl)cc1 [compound 815568] | 30 |  |  | 
29 | O=C(NCCCCN1CCN(c2c(Cl)sc3cc(C(F)(F)F)ccc23)CC1)c1ccc([N+](=O)[O-])cc1 [compound 815569] | 13 |  |  | 
30 | COc1ccc(C(=O)NCCCCN2CCN(c3c(Cl)sc4cc(C(F)(F)F)ccc34)CC2)cc1OC [compound 815570] | 30 |  |  | 
31 | O=C(NCCCCN1CCN(c2c(Cl)sc3cc(C(F)(F)F)ccc23)CC1)c1ccc(Br)cc1 [compound 815571] | 34.2 |  |  | 
32 | O=C(NCCCCN1CCN(c2c(Cl)sc3cc(C(F)(F)F)ccc23)CC1)c1ccccc1C(F)(F)F [compound 815573] | 35 |  |  | 
33 | COc1ccccc1C(=O)NCCCCN1CCN(c2c(Cl)sc3cc(C(F)(F)F)ccc23)CC1 [compound 815574] | 53 |  |  | 
34 | O=C(NCCCCN1CCN(c2c(Cl)sc3cc(C(F)(F)F)ccc23)CC1)c1ccc(C(F)(F)F)cc1 [compound 815575] | 50 |  |  | 
35 | O=C(NCCCCN1CCN(c2c(Cl)sc3cc(C(F)(F)F)ccc23)CC1)c1ccco1 [compound 815576] | 63 |  |  | 
36 | O=C(NCCCCN1CCN(c2c(Cl)sc3cc(C(F)(F)F)ccc23)CC1)c1c(F)cccc1F [compound 815577] | 95 |  |  | 
37 | O=C(NCCCCN1CCN(c2c(Cl)sc3cc(C(F)(F)F)ccc23)CC1)c1ccccc1Br [compound 815578] | 117 |  |  | 
38 | O=C(NCCCCN1CCN(c2c(Cl)sc3cc(C(F)(F)F)ccc23)CC1)C1CCCC1 [compound 815579] | 104 |  |  | 
39 | COc1ccc(C(=O)N[C@@H](CO)CCCN2CCN(c3csc4cc(C(F)(F)F)ccc34)CC2)cc1OC [compound 815665] | 163 |  | 163 | 
40 | CC(=O)Nc1ccc(C(=O)N[C@@H](CO)CCCN2CCN(c3csc4cc(C(F)(F)F)ccc34)CC2)cc1 [compound 815667] | 203 |  | 203 | 
41 | COc1ccc(C(=O)N[C@@H](CO)CCCN2CCN(c3csc4cc(C(F)(F)F)ccc34)CC2)cc1 [compound 815668] | 150 |  | 150 | 

Next, values leading:

Row | Ki (read-out: D3K1) [nM] | Ki [1] [nM] | Ki [2] [nM] | Ki (Table 2, read-out: D3K1) [nM] | Structure (SMILES)
42 | 192 |  | 192 |  | O=C(N[C@@H](CO)CCCN1CCN(c2csc3cc(C(F)(F)F)ccc23)CC1)c1ccc(-c2ccccc2)cc1 [compound 815670]
43 | 309 |  | 309 |  | Cc1ccc(C(=O)N[C@@H](CO)CCCN2CCN(c3csc4cc(C(F)(F)F)ccc34)CC2)cc1 [compound 815671]
44 | 314 |  | 314 | 314 | O=C(N[C@@H](CO)CCCN1CCN(c2csc3cc(C(F)(F)F)ccc23)CC1)c1cc2ccccc2[nH]1 [compound 815674]
45 | 224 |  | 224 | 224 | O=C(N[C@@H](CO)CCCN1CCN(c2csc3cc(C(F)(F)F)ccc23)CC1)c1ccc2[nH]ccc2c1 [compound 815676]
46 | 297 |  | 297 | 297 | O=C(N[C@@H](CO)CCCN1CCN(c2csc3cc(C(F)(F)F)ccc23)CC1)c1cc2ccccc2o1 [compound 815677]
47 | 129 |  | 129 | 129 | O=C(N[C@@H](CO)CCCN1CCN(c2csc3cc(C(F)(F)F)ccc23)CC1)c1ccc(Br)cc1 [compound 815679]
48 | 197 |  | 197 | 197 | CCn1cc(C(=O)N[C@@H](CO)CCCN2CCN(c3csc4cc(C(F)(F)F)ccc34)CC2)c(=O)c2ccc(C)nc21 [compound 815680]
49 | 261 |  | 261 | 261 | CSc1ncccc1C(=O)N[C@@H](CO)CCCN1CCN(c2csc3cc(C(F)(F)F)ccc23)CC1 [compound 815681]
50 | 208 |  | 208 | 208 | O=C(NC(CO)CCCN1CCN(c2csc3cc(C(F)(F)F)ccc23)CC1)c1cc2ccccc2s1 (stereo not drawn) [compound 815684]
51 | 186 |  | 186 | 186 | O=C(NC(CO)CCCN1CCN(c2csc3cc(C(F)(F)F)ccc23)CC1)c1ccc2c(c1)S(=O)(=O)c1ccccc1C2=O (stereo not drawn) [compound 815685]
52 | 275 |  | 275 | 275 | O=C(NC(CO)CCCN1CCN(c2csc3cc(C(F)(F)F)ccc23)CC1)c1cc2ccc(Cl)cc2s1 (stereo not drawn) [compound 815686]
53 | 190 |  | 190 | 190 | O=C(NC(CO)CCCN1CCN(c2csc3cc(C(F)(F)F)ccc23)CC1)c1ccccc1C(F)(F)F (stereo not drawn) [compound 815688]
54 | 225 |  | 225 | 225 | COc1ccc(C(=O)NC(CO)CCCN2CCN(c3csc4cc(C(F)(F)F)ccc34)CC2)cc1OC (stereo not drawn) [compound 815689]
55 | 245 |  | 245 | 245 | O=C(NC(CO)CCCN1CCN(c2csc3cc(C(F)(F)F)ccc23)CC1)c1ccc(Cl)cc1 (stereo not drawn) [compound 815690]
56 | 241 |  | 241 | 241 | CC(=O)Nc1ccc(C(=O)N[C@H](CO)CCCN2CCN(c3csc4cc(C(F)(F)F)ccc34)CC2)cc1 [compound 815691]
57 | 191 |  | 191 | 191 | COc1ccc(C(=O)N[C@H](CO)CCCN2CCN(c3csc4cc(C(F)(F)F)ccc34)CC2)cc1 [compound 815692]
58 | 197 |  | 197 | 197 | O=C(N[C@H](CO)CCCN1CCN(c2csc3cc(C(F)(F)F)ccc23)CC1)c1ccc(-c2ccccc2)cc1 [compound 815694]
59 | 198 |  | 198 | 198 | Cc1ccc(C(=O)N[C@H](CO)CCCN2CCN(c3csc4cc(C(F)(F)F)ccc34)CC2)cc1 [compound 815695]
60 | 871 |  | 871 | 871 | O=C(N[C@H](CO)CCCN1CCN(c2csc3cc(C(F)(F)F)ccc23)CC1)c1ccco1 [compound 815696]
61 | 294 |  | 294 | 294 | O=C(N[C@H](CO)CCCN1CCN(c2csc3cc(C(F)(F)F)ccc23)CC1)c1ccc2ccccc2c1 [compound 815697]
62 | 329 |  | 329 | 329 | O=C(N[C@H](CO)CCCN1CCN(c2csc3cc(C(F)(F)F)ccc23)CC1)c1cc2ccccc2[nH]1 [compound 815698]
63 | 128 |  | 128 | 128 | O=C(N[C@H](CO)CCCN1CCN(c2csc3cc(C(F)(F)F)ccc23)CC1)c1ccc2[nH]ccc2c1 [compound 815700]
